The values below come from patent US20230263822A1, “MODULATION OF FACTOR 11 EXPRESSION” (Ionis Pharmaceuticals, Inc., priority 2008, published 2023).

Details of series [1]: species or system BALB/c mice. The following applies: mouse, in vivo. On the procedure: ISIS 404071 and Apixaban were evaluated in the tail bleeding model.
The saline filled tubes were weighed before and after bleeding.

For series [2] the following is noted: apixaban added to aspirin and to aspirin plus clopidogrel, compared with aspirin alone and aspirin plus clopidogrel (Wong); cited from earlier work.
The next series deals with Factor 11 mRNA. Put plainly: Factor 11 mRNA in liver, FeCl3 induced venous thrombosis model vs Apixaban (Example 14). Format: in vivo, BALB/c mice. The settings on record: for % inhibition of Factor 11 mRNA in liver relative to PBS control: FeCl3 VT model. On the procedure: (§1) ISIS 404071 and Apixaban were evaluated in the FeCl3 induced VT mouse model. […] Two days after receiving the last dose of ISIS 404071, mice were anesthetized with 150 mg/kg ketamine mixed with 10 mg/kg xylazine administered by intraperitoneal injection. […] Twenty minutes after receiving Apixaban, mice were anesthetized with 150 mg/kg ketamine mixed with 10 mg/kg xylazine administered by intraperitoneal injection. […] Two days after the last dose of PBS, mice in both groups were anesthetized with 150 mg/kg ketamine mixed with 10 mg/kg xylazine administered by intraperitoneal injection. Thrombus formation was induced with FeCl3 in all of the mice except the first control group.
(§2) In mice undergoing FeCl3 treatment, thrombus formation was induced by applying a piece of filter paper (2×4 mm) pre-saturated with 10% FeCl3 solution directly on the vena cava. After 3 minutes of exposure, the filter paper was removed. Thirty minutes after the filter paper application, a fixed length of the vein containing the thrombus was dissected out for platelet analysis. Liver was collected for RNA analysis.
RNA was extracted from liver tissue for real-time PCR analysis of Factor 11. Results are presented as percent inhibition of Factor 11, relative to PBS control.

For another series, the system named is blood coagulation. Put plainly: PT and aPTT, combination with Apixaban (Example 20). The series is classed as in vivo, BALB/c mice. The procedure: PT and aPTT were measured using PPP from mice treated with ISIS 404071 in combination with Apixaban. In the first cohort, ISIS 404071 was administered subcutaneously to BALB/c mice at a dosage of 25 mg/kg twice a week for 3 weeks. Plasma was collected from these mice 5 days after receiving the last dose of ISIS 404071. In the second cohort, Apixaban was administered subcutaneously to BALB/c mice at a dosage of 6 mg/kg twice daily for three days. Plasma was collected from these mice 20 minutes after receiving the last dose of Apixaban. In the third cohort, ISIS 404071 was administered subcutaneously to BALB/c mice at a dosage of 20 mg/kg twice a week for 3 weeks, and Apixaban was administered subcutaneously at a dosage of 6 mg/kg twice daily on the last three days of ISIS 404071 treatment. Plasma was collected from these mice 20 minutes after receiving the last dose of Apixaban. In a fourth cohort, PBS was administered subcutaneously twice a week for three weeks, as a control. Plasma was collected 5 days after the last dose of PBS.
PT and aPTT values provided in Table 32 are reported as International Normalized Ratio (INR) values. […] However, Apixaban and Apixaban combined with ISIS 404071 increased PT. Also shown in Table 32, Apixaban, ISIS 404071, and ISIS 404071 combined with Apixaban increase aPTT.

Series [3] in a line: Tail bleeding assay, Apixaban in combination with PLAVIX (Example 28). Format: in vivo, BALB/c mice. The procedure: Five groups of eight BALB/c mice were treated with 0 mg/kg, 6.25 mg/kg, 12.50 mg/kg, 25.00 mg/kg, or 50.00 mg/kg of PLAVIX. Mice were given two doses of PLAVIX on day one and one dose of PLAVIX on day two, two hours before bleeding. An additional five groups of eight BALB/c mice were treated with 0 mg/kg, 6.25 mg/kg, 12.50 mg/kg, 25.00 mg/kg, or 50.00 mg/kg of PLAVIX. Mice were given two doses of PLAVIX on day one and one dose of PLAVIX on day two, two hours before bleeding. […] Two hours after receiving their final treatment, mice were placed in a tail bleeding chamber.

Series [4] relates to platelet factor-4 (PF-4). Put plainly: Thrombus formation by PF-4 real-time PCR, FeCl3 induced venous thrombosis model vs Apixaban (Example 14). The series is classed as in vivo, BALB/c mice. The following applies: for PF-4 in vena cava, percentage as compared to PBS controls (thrombus formation): + FeCl3. On the procedure:
as §1, §2
Real-time PCR quantification of platelet factor-4 (PF-4) was used to quantify platelets in the vena cava as a measure of thrombus formation. […] Results are presented as a percentage of PF-4 in ISIS 404071 or Apixaban treated mice, as compared to the two PBS-treated control groups.
For orientation: Real-time PCR tracks product formation cycle by cycle.

Series [5] is described as follows: Tail bleeding assay, combination with PLAVIX (Example 27). The series is classed as in vivo, BALB/c mice. The following applies: ISIS 404071 0. The procedure:
ISIS 404071 was administered subcutaneously at a dosage of 20 mg/kg twice a week for 3 weeks to 5 groups of eight BALB/c mice. After the last dose of ISIS 404071, mice were treated with 0 mg/kg, 6.25 mg/kg, 12.50 mg/kg, 25.00 mg/kg, or 50.00 mg/kg of PLAVIX. Two doses of PLAVIX were administered to the mice on day one and one dose of PLAVIX was administered on day two, two hours before bleeding.
Two hours after receiving their final treatment, mice were placed in a tail bleeding chamber. […] The blood was collected for the course of 40 minutes.

Series [6] relates to platelet factor-4 (PF-4). Put plainly: Thrombus formation by PF-4, FeCl3 induced VT model, combination with PLAVIX (Example 26). The settings on record: for PF-4 mRNA, percent as compared to the PBS + FeCl3 control (thrombus formation): ISIS 404071 0 mg/kg. The series is classed as in vivo, BALB/c mice. The procedure: The combination of ISIS 404071 and PLAVIX was evaluated in the FeCl3 induced VT mouse model. Four groups of eight BALB/c mice, weighing approximately 25 g each, were treated with 6.25 mg/kg, 12.50 mg/kg, 25.00 mg/kg, or 50.00 mg/kg of PLAVIX. Mice were given two doses of PLAVIX on day one and one dose of PLAVIX on day two, two hours before surgery.
After the last dose of ISIS 404071, mice were treated with 6.25 mg/kg, 12.50 mg/kg, 25.00 mg/kg, or 50.00 mg/kg of PLAVIX. Two doses of PLAVIX were administered to the mice on day one and one dose of PLAVIX was administered on day two, two hours before surgery.
Two control groups of eight BALB/c mice, weighing approximately 25 g each, were not treated with ISIS 404071 or PLAVIX. […] Thrombus formation was induced with FeCl3 in all of the mice except the first […] control groups. All mice were anesthetized with 150 mg/kg of ketamine mixed with 10 mg/kg of xylazine administered by intraperitoneal injection.
After 3 minutes of exposure, the filter paper was removed. Thirty minutes after the filter paper application, a fixed length of the vein containing the thrombus was dissected out for platelet analysis.
Real-time PCR quantification of PF-4 was used to quantify platelets in the vena cava as a measure of thrombus formation. […] Therefore, the combination of anti-platelet therapy with Factor 11 ASO increases antithrombotic activity. Data is presented as percent of PF-4 mRNA as compared to the PBS+ FeCl3 control.

The mark [7] stands for this setting: Apixaban 0.5 mg/kg subcutaneously one time.
Setting [8] is: Apixaban 2 mg/kg subcutaneously one time.
Where [9] appears, read: Apixaban 5 mg/kg subcutaneously one time.
[10] abbreviates: Apixaban 10 mg/kg subcutaneously one time.
The mark [11] stands for this setting: Apixaban 20 mg/kg subcutaneously one time.
Setting [12] is: BALB/c mice, ISIS 404071 25 or 20 mg/kg, Apixaban 6 mg/kg twice daily.
Setting [13] is: ISIS 404071 alone 25 mg/kg s.c. twice a week for 3 weeks, Apixaban alone 6 mg/kg s.c. twice daily for three days, combination 20 mg/kg + 6 mg/kg.

`COc1ccc(-n2nc(C(N)=O)c3c2C(=O)N(c2ccc(N4CCCCC4=O)cc2)CC3)cc1` [Apixaban, reference compound]: the “bleeding in tail bleeding assay” value in series [1] was “did increase bleeding”. For the same compound, in series [2], the bleeding time entry is “significant increase in bleeding time”. The “% inhibition of Factor 11 mRNA in liver relative to PBS control” value with Factor 11 mRNA (setting [7]) is reported as 5%; in the series on Factor 11 mRNA (setting [8]), 8%; in the series with Factor 11 mRNA (setting [9]), 12%; with Factor 11 mRNA (setting [10]), 2%; with Factor 11 mRNA (setting [11]) it was 0%. Besides, the “Factor 11 mRNA in liver vs PBS control” value with Factor 11 mRNA (FeCl3 induced VT model, ISIS 404071 1.25-40 mg/kg, Apixaban 0.5-5 mg/kg s.c. once) was “did not result in significant reduction of Factor 11”. In addition, in the series with blood coagulation (setting [12]), the “PT” value is “increased PT”. Moreover, the “aPTT” value in the series with blood coagulation (setting [12]) is reported as “increase aPTT”. Moreover, in the series on blood coagulation (setting [13]), the “PT INR” value was 3.25 INR. In addition, the “aPTT INR” value with blood coagulation (setting [13]) was determined as 1.44 INR. Moreover, in series [3] (Apixaban 0.5 mg/kg i.p. in combination with anti-platelet therapy (PLAVIX 0-50 mg/kg)), the “bleeding risk in tail bleeding assay” value was “increases bleeding risk”. Also, in series [3] (Apixaban 0.5 mg/kg intraperitoneally 20 minutes before bleeding, PLAVIX 0), the “Blood (tail bleeding, collected for 40 minutes)” value was found to be 0.004 g. Further, the “PF-4 in vena cava, percentage as compared to PBS controls (thrombus formation)” value is 67% in the series on platelet factor-4 (PF-4) [4] (setting [7]); 46% in the series with platelet factor-4 (PF-4) [4] (setting [8]); 15% in the series with platelet factor-4 (PF-4) [4] (setting [9]); 5% in the series with platelet factor-4 (PF-4) [4] (setting [10]); 26% in the series with platelet factor-4 (PF-4) [4] (setting [11]). The “PF-4 in vena cava as measure of thrombus formation” value in the series on platelet factor-4 (PF-4) [4] (FeCl3 induced VT model, vs PBS control) was “also resulted in reduction of PF-4”.

As to `COC(=O)[C@H](c1ccccc1Cl)N1CCc2sccc2C1` [PLAVIX, clopidogrel], the figures for the “Blood (tail bleeding, collected for 40 minutes)” value in series [5] (PLAVIX 6.25 mg/kg), in series [5] (PLAVIX 12.50 mg/kg) and in series [5] (PLAVIX 50.00 mg/kg) were 0.075 g, 0.205 g and 0.628 g, respectively. In addition, in the series with platelet factor-4 (PF-4) [6] (FeCl3 induced VT model, PLAVIX 6.25-50 mg/kg, ISIS 404071 20 mg/kg), the “PF-4 in vena cava as measure of thrombus formation” value is given as “resulted in a reduction of PF-4”. Besides, the “PF-4 mRNA, percent as compared to the PBS + FeCl3 control (thrombus formation)” value in the series on platelet factor-4 (PF-4) [6] (PLAVIX 6.25 mg/kg) was 59%; in the series on platelet factor-4 (PF-4) [6] (PLAVIX 12.50 mg/kg), 37%; in the series on platelet factor-4 (PF-4) [6] (PLAVIX 50.00 mg/kg), 30%; with platelet factor-4 (PF-4) [6] (PLAVIX […]), 30%.
